The record followed here is ChEMBL document CHEMBL4396870, “Pharmacological Chaperones for the Treatment of α-Mannosidosis” (J Med Chem, 2019).

Assay [1] concerns T1, Lysosomal alpha-mannosidase (Homo sapiens), O00754 [L565P].
T1 sequence (whole entry): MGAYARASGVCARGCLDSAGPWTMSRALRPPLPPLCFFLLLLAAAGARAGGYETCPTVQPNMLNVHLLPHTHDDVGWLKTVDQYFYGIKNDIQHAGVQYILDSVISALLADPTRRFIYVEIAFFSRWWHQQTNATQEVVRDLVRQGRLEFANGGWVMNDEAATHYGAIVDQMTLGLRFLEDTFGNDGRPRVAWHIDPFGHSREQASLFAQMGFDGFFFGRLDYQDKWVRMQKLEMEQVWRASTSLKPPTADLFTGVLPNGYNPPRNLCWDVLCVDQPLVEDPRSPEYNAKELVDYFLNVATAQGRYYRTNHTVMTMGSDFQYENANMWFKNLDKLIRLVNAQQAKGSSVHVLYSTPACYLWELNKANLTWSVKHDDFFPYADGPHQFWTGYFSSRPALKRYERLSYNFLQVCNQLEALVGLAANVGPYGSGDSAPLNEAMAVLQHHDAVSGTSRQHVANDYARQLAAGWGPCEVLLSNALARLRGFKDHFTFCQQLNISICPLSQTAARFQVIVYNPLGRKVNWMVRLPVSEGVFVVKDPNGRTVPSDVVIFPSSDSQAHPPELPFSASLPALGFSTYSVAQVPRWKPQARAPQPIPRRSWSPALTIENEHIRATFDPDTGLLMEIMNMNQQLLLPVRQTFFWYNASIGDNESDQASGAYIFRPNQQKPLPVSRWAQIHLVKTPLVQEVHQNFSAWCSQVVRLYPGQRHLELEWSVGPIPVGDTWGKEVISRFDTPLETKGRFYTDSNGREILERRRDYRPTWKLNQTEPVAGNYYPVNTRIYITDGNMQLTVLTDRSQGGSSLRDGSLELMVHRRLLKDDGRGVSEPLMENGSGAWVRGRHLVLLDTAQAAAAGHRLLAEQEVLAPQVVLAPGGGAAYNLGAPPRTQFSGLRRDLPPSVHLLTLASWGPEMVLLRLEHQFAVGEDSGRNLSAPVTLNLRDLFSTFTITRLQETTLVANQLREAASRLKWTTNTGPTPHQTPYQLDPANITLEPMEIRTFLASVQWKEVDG
Briefly: Chaperone activity at human Lysosomal alpha-mannosidase L565P mutant transfected in human […] knockout HAP1 cells assessed as enzyme activity enhancement at 20 uM incubated for 96 hrs relative to control.

For assay [2], the system named is T2, Lysosomal alpha-mannosidase (Homo sapiens), O00754 [H72L].
T2 sequence (whole entry): T1 sequence (whole entry) with H72L, P565L
Briefly: Chaperone activity at human Lysosomal alpha-mannosidase H72L mutant transfected in human […] knockout HAP1 cells assessed as enzyme activity enhancement at 20 uM incubated for 96 hrs relative to control.

Numbering of substitutions follows the chain as printed.

Take `CC(C)(C)OC(=O)NCCCCCCCCCN[C@@H]1[C@@H](O)[C@@H](O)[C@H](O)[C@H]2COC(=O)N21`: the Activity in assay [1] is 5%; in assay [2], 68%.
For `COC[C@H]1O[C@@H]2O[C@H]3[C@H](OC)[C@@H](OC)[C@@H](O[C@H]4[C@H](OC)[C@@H](OC)[C@@H](O[C@H]5[C@H](OC)[C@@H](OC)[C@@H](O[C@H]6[C@H](OC)[C@@H](OC)[C@@H](O[C@H]7[C@H](OC)[C@@H](OC)[C@@H](O[C@H]8[C@H](OC)[C@@H](OC)[C@@H](O[C@H]1[C@H](OC)[C@H]2OC)O[C@@H]8COC)O[C@@H]7COC)O[C@@H]6COC)O[C@@H]5COCc1cn(CCCCCCN[C@@H]2[C@@H](O)[C@@H](O)[C@H](O)[C@H]5COC(=O)N52)nn1)O[C@@H]4COC)O[C@@H]3COC` the same measures were 0% and 16%.
